Measurements from patent publication US20160022599A1, “System and Method for Fabrication of Uniform Polymer Films Containing Nano and Micro Particles via Continuous Drying Process” (NEW JERSEY INSTITUTE OF TECHNOLOGY, priority 2013, published 2016).
Values after ≈ are worked out from the molar mass of the structure shown.

Legend:
[1] = USP IV flow-through cell dissolution of films in SDS solution; type: physicochemical
Description: The dissolution experiments were performed by cutting out a ⅜ inch diameter sample of film and placing it into a flow-though cell dissolution apparatus (USP IV, Sotax, Switzerland) while 118 mL (5.4 mg/mL) aqueous SDS passed through cells (internal diameter of 22.6 mm) at a rate of 16 mL per minute. The amount of API dissolved from the film was measured over time until 100% of drug was released.
Dissolution experiments were performed using a flow-through cell dissolution apparatus (USP IV, Sotax, Switzerland) with cells of an internal diameter of 22.6 mm. Films were horizontally positioned in the cells with glass beads (1 mm in diameter) filling up the conical part at the bottom of each cell. Glass microfiber filters (GF/D grade, Whatman, Schenectady, N.Y., USA) were used in the filter-head. The temperature was maintained at 37±0.5° C. and a flow rate of 15 mL/min was used.
During testing, the dissolution medium (20 mM SDS solution, 100 mL) was circulated by pumping it through each cell. Six samples were used and the average drug release and the standard deviation were plotted as a function of time.
The dissolution behavior of the stripfilms made using the blend (HPMC and PVP) strip films containing GF nanoparticles was examined using a flow-through cell dissolution apparatus (USP IV, Sotax, Switzerland) with cells of an internal diameter of 22.6 mm. Six circular film samples (having an area of 0.712 cm^2) were punched out of each film and tested. For each film, six samples were horizontally positioned in the six cells with 6.5 g of glass beads (1 mm in diameter) filling up the conical part at the bottom of each cell. Pall HT Tuffryn Membrane Disc Filters (0.2 μm) were used for this study in the filter-head in each experiment. The temperature was maintained at 37±0.5° C., and a flow rate of 16 ml/min was used. During testing, a 100 ml dissolution medium (SDS solution (5.4 mg/ml)) was circulated by pumping it through each cell. […]

[2] = USP IV flow-through cell dissolution of films in deionized water; type: physicochemical; conditions: DI water media
Description: Therefore, for the present disclosure, a flow-through cell dissolution apparatus (USP 4, Sotax, Switzerland) with cells of an internal diameter of 22.6 mm was employed. Circular film samples (having an area of 0.712 cm^2) were horizontally positioned in the cells with glass beads (1 mm in diameter) filling the top and bottom of each cell. […] The temperature was maintained at 37±0.5° C. and a flow rate of 16 mL/min was used. Dissolution experiments were carried out using two different media. […] For the second case, deionized (DI) water was used as the media. Six samples were used from each film (S-S8) and the average drug release was plotted as a function of time. To better understand the effect of SDIs on rate of drug release from HPMC films, two new formulations were prepared (formulation S7 and S8). In the first case a high molecular weight HPMC (E4M, Dow chemicals) was used to prepare films loaded with GF nanoparticles. In the second a higher concentration of HPMC ([…]) was used to prepare films containing GF nanoparticles (following the same procedure stated above). The percent drug loading and film thickness were kept same as formulations S-S8 and same dissolution testing protocols were followed. The release kinetics of GF from HPMC films was determined by finding the best fit for the release profiles. […]

[3] = cited from earlier work
[4] = cited from earlier work; remark: listed apart in the source
[5] = cited from earlier work; remark: listed apart in the source
[6] = Drug particle size (laser diffraction / DLS) in suspension and after re-dispersion from films; type: physicochemical; conditions: for median size of suspension after milling of drug alone: no stabilizers; for d50, Tip Speed: 11.72 m/s / d50, Tip Speed: 14.66 m/s: WSMM, 100 μm media
Description: An aliquot of the suspensions was dispersed in a 10 ml stabilizer solution and the particle size of the suspensions was measured using a Beckman Coulter LS13320 after milling. The resulting drug suspensions were mixed with a 10% w/w solution of HPMC E15LV and glycerin in a ratio of 1:1, drug suspension to polymer solution. This suspension was stirred for 3 hours with a dual-propeller mixer (McMaster, Catalog no. 3471K5, Los Angeles, Calif., USA). The particle size of the suspensions was measured after mixing with the polymer solution to check for particle growth.
The term “median size” here refers to the 50% vol. passing size of the cumulative volume distribution in LD and cumulant or z-average mean size in DLS. The griseofulvin particle size above 160 nm was measured in LD and the sizes below were measured using DLS. […] The particle size of un-milled drug suspension (in the presence of stabilizers), was also measured and referred as the 0th minute particle size.
GF nanosuspensions were produced via WSMM utilizing a Microcermill (NETZSCH, Fine particle technology LLC, Exton, Pa.) as per previously described methods and processing conditions. HPMC and SDS were chosen as stabilizers. […] At the end of milling, a sample was taken from the holding tank of the mill and dispersed into 15 mL HPMC-SDS stabilizers solution (using a pipette) and the particle size distribution of GF in the sample was then measured using laser diffraction in Coulter LS13320 (Beckman Coulter, Miami, Fla.).
The particle size distribution of GF was measured in suspensions after milling, after mixing with polymer solutions (S-S8) and from re-dispersed films using a laser diffraction technique. […] The size of SDIs (SSG, CCS and CP) was recorded for three cases: after incorporation into HPMC solution, before and after addition of GF nano-suspension and after film re-dispersion. Film re-dispersion was performed by dissolving a small piece of film (about 0.712 cm^2 in area) into 10 mL DI water followed by vortex mixing for 1 min. The same procedure was also followed for formulations S4-S8. Each experiment was performed in triplicate. […]
Particle size measurement of drug nanoparticles in suspension is described herein. To re-disperse drug particles from films, circular punches of film of about 0.71 cm^2 in area were vortex mixed in 3 mL of DI water for 3-5 minutes.
The particle size distribution of GF in the nano-suspensions was measured by laser diffraction in Coulter LS13320 (Beckman Coulter, Miami, Fla., USA). A sample of the suspension was taken at the end of milling from the holding tank of the mill. The sample was dispersed in 15 ml HPMC-SDS stabilizer solution by stirring with a pipette. The sample was added drop-wise until the polarization intensity differential scattering (PIDS) reached 40%.
The same method was used to measure the particles size of GF nanoparticles re-dispersed in water from films. […] The sample particle size was measured after 10 min of magnetic stirring.

[7] = Film disintegration time in water; type: physicochemical; conditions: ⅝ inch diameter film in 10 ml of water; film about 16 micrometer (Example 8)
Description: The drying temperature was kept constant at 60° C. Casting thickness was adjusted to 200 micron thickness using a Doctor blade film applicator. The film was dried for about 30 min, and the dried film thickness was measured to be about 16 micrometer. The disintegration time of dried films was noted by placing a ⅝ inch diameter film in 10 ml of water. The time taken by the film to disintegrate completely was about 10 seconds.

SMILES: NC(=O)N=NC(N)=O [AZD, azodicarbonamide]
- dissolution profiles of films with vs without SDS ([1]; SDS media, similarity and difference factors): statistically similar dissolution profiles with and without SDS
- dissolution profiles of films with vs without SDS [2]: statistically similar dissolution profiles with and without SDS
- Solubility in water at 4° C. [3]: 35.0 µg/mL (≈ 302 µM)
- logP ([4]; Table 23): 5.8
- pKa [5]: 3.9

SMILES: COc1ccc2cc([C@H](C)C(=O)O)ccc2c1 [NPX, naproxen]
- median size of nanoparticles milled in the presence of HPMC alone [6]: 147 nm
- median size of suspension after milling of drug alone [6]: 12 um

SMILES: COC1=CC(=O)C[C@@H](C)[C@]12Oc1c(Cl)c(OC)cc(OC)c1C2=O [as received powder, griseofulvin]
- % of GF released in 50 minutes ([1]; SDS solution […], FIG. 47): 40%

SMILES: COC1=CC(=O)C[C@@H](C)[C@]12Oc1c(Cl)c(OC)cc(OC)c1C2=O [GF, griseofulvin]
- percent griseofulvin dissolved within five minutes ([1]; 0.025 M SDS, about 18 micron HPMC film, 70 nm nanoparticles (Example 8)): about 100%
- disintegration time of dried film [7]: about 10 seconds
- particle size stability of nanosuspension on storage ([6]; 7 days of storage): the particle size was stable after 7 days of storage
- d50, Tip Speed: 11.72 m/s ([6]; time 0): 21.845 microns
- d50, Tip Speed: 14.66 m/s ([6]; time 0): 21.845 microns
- d50, Tip Speed: 11.72 m/s ([6]; time 4): 1.378 microns
- d50, Tip Speed: 14.66 m/s ([6]; time 4): 0.479 microns
- d50, Tip Speed: 11.72 m/s ([6]; time 8): 0.378 microns
- d50, Tip Speed: 14.66 m/s ([6]; time 8): 0.267 microns
- d50, Tip Speed: 11.72 m/s ([6]; time 16): 0.149 microns
- d50, Tip Speed: 14.66 m/s ([6]; time 16): 0.134 microns
- d50, Tip Speed: 11.72 m/s ([6]; time 32): 0.122 microns
- d50, Tip Speed: 14.66 m/s ([6]; time 32): 0.112 microns
- d50, Tip Speed: 11.72 m/s ([6]; time 64): 0.106 microns
- d50, Tip Speed: 14.66 m/s ([6]; time 64): 0.087 microns
- d50, Tip Speed: 11.72 m/s ([6]; time 120): 0.084 microns
- d50, Tip Speed: 14.66 m/s ([6]; time 120): 0.069 microns
- d50, Tip Speed: 11.72 m/s ([6]; time 180): 0.069 microns
- d50, Tip Speed: 14.66 m/s ([6]; time 180): 0.061 microns
- d50, Tip Speed: 11.72 m/s ([6]; time 240): 0.067 microns
- d50, Tip Speed: 14.66 m/s ([6]; time 240): 0.064 microns
- d50, Tip Speed: 11.72 m/s ([6]; time 300): 0.062 microns
- d50, Tip Speed: 14.66 m/s ([6]; time 300): 0.059 microns
- d50, Tip Speed: 11.72 m/s ([6]; time 360): 0.060 microns
- d50, Tip Speed: 14.66 m/s ([6]; time 360): 0.056 microns
- median size of suspension after milling of drug alone [6]: 4 um
- final particle size at 360 min of milling ([6]; tip speed 11.72 m/s): 60 nm
- final particle size at 360 min of milling ([6]; tip speed 14.66 m/s): 56 nm
- solubility in water ([3]; as quoted): 0.7 µg/mL (≈ 1.98 µM)
- partition co-efficient, log P ([4]; as quoted): 1.1
